Experimental data published in the supplement of paper PMC10307832.

Legend:
Assay in all cases: relative viability (nuclei count vs DMSO), 5 days (fraction); higher = more cells survive
A-427 = tested on: A-427
Summary of the method: (§1)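 Dosing by pin tool came one day after lung cancer cell lines were seeded in 1536-well plates, using either one drug or a fixed anchor-drug dose plus five library-drug doses (not always all listed) in √10 steps. After 5 days, nuclei were counted on 4× images. Relative viability is treated-well nuclei count divided by vehicle-well nuclei count, and values are medians of duplicate plates.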

ABC-1 = tested on: ABC-1
Summary of the method: as §1

BEN = tested on: BEN
Summary of the method: as §1

CAL-12T = tested on: CAL-12T
Summary of the method: as §1

HARA = tested on: HARA
Summary of the method: as §1

LCLC-103H = tested on: LCLC-103H
Summary of the method: as §1

LOU-NH91 = tested on: LOU-NH91
Summary of the method: as §1

NCI-H1651 = tested on: NCI-H1651
Summary of the method: as §1

NCI-H1666 = tested on: NCI-H1666
Summary of the method: as §1

NCI-H1734 = tested on: NCI-H1734
Summary of the method: as §1

NCI-H1944 = tested on: NCI-H1944
Summary of the method: as §1

NCI-H1975 = tested on: NCI-H1975
Summary of the method: as §1

NCI-H2085 = tested on: NCI-H2085
Summary of the method: as §1

NCI-H2126 = tested on: NCI-H2126
Summary of the method: as §1

NCI-H460 = tested on: NCI-H460
Summary of the method: as §1

NCI-H520 = tested on: NCI-H520
Summary of the method: as §1

NCI-H596 = tested on: NCI-H596
Summary of the method: as §1

NCI-H647 = tested on: NCI-H647
Summary of the method: as §1

NCI-H661 = tested on: NCI-H661
Summary of the method: as §1

NCI-H727 = tested on: NCI-H727
Summary of the method: as §1

NCI-H838 = tested on: NCI-H838
Summary of the method: as §1

RERF-LC-KJ = tested on: RERF-LC-KJ
Summary of the method: as §1

SW 900 = tested on: SW 900
Summary of the method: as §1

Compound: CCNC(=O)c1noc(-c2cc(C(C)C)c(O)cc2O)c1-c1ccc(CN2CCOCC2)cc1 [Luminespib] + Cc1nc(Nc2ncc(C(=O)Nc3c(C)cccc3Cl)s2)cc(N2CCN(CCO)CC2)n1 [Dasatinib] (partner 0.075 µM)
- relative viability (A-427; first compound 0.002 µM): 0.779
- relative viability (A-427; first compound 0.006325 µM): 0.671
- relative viability (A-427; first compound 0.02 µM): 0.483
- relative viability (A-427; first compound 0.06325 µM): 0.33
- relative viability (A-427; first compound 0.2 µM): 0.128
- relative viability (ABC-1; first compound 0.002 µM): 0.691
- relative viability (ABC-1; first compound 0.006325 µM): 0.526
- relative viability (ABC-1; first compound 0.02 µM): 0.446
- relative viability (ABC-1; first compound 0.06325 µM): 0.197
- relative viability (ABC-1; first compound 0.2 µM): 0.193
- relative viability (BEN; first compound 0.002 µM): 0.323
- relative viability (BEN; first compound 0.006325 µM): 0.303
- relative viability (BEN; first compound 0.02 µM): 0.263
- relative viability (BEN; first compound 0.06325 µM): 0.334
- relative viability (BEN; first compound 0.2 µM): 0.192
- relative viability (CAL-12T; first compound 0.002 µM): 0.519
- relative viability (CAL-12T; first compound 0.006325 µM): 0.485
- relative viability (CAL-12T; first compound 0.02 µM): 0.147
- relative viability (CAL-12T; first compound 0.06325 µM): 0.0553
- relative viability (CAL-12T; first compound 0.2 µM): 0.0762
- relative viability (HARA; first compound 0.002 µM): 0.224
- relative viability (HARA; first compound 0.006325 µM): 0.279
- relative viability (HARA; first compound 0.02 µM): 0.205
- relative viability (HARA; first compound 0.06325 µM): 0.0633
- relative viability (HARA; first compound 0.2 µM): 0.0774
- relative viability (LCLC-103H; first compound 0.002 µM): 0.493
- relative viability (LCLC-103H; first compound 0.006325 µM): 0.491
- relative viability (LCLC-103H; first compound 0.02 µM): 0.41
- relative viability (LCLC-103H; first compound 0.06325 µM): 0.536
- relative viability (LCLC-103H; first compound 0.2 µM): 0.529
- relative viability (LOU-NH91; first compound 0.002 µM): 0.517
- relative viability (LOU-NH91; first compound 0.006325 µM): 0.543
- relative viability (LOU-NH91; first compound 0.02 µM): 0.388
- relative viability (LOU-NH91; first compound 0.06325 µM): 0.258
- relative viability (LOU-NH91; first compound 0.2 µM): 0.29
- relative viability (NCI-H1651; first compound 0.002 µM): 0.352
- relative viability (NCI-H1651; first compound 0.006325 µM): 0.433
- relative viability (NCI-H1651; first compound 0.02 µM): 0.331
- relative viability (NCI-H1651; first compound 0.06325 µM): 0.132
- relative viability (NCI-H1651; first compound 0.2 µM): 0.107
- relative viability (NCI-H1666; first compound 0.002 µM): 0.873
- relative viability (NCI-H1666; first compound 0.006325 µM): 0.711
- relative viability (NCI-H1666; first compound 0.02 µM): 0.904
- relative viability (NCI-H1666; first compound 0.06325 µM): 0.85
- relative viability (NCI-H1666; first compound 0.2 µM): 0.748
- relative viability (NCI-H1734; first compound 0.002 µM): 0.552
- relative viability (NCI-H1734; first compound 0.006325 µM): 0.419
- relative viability (NCI-H1734; first compound 0.02 µM): 0.314
- relative viability (NCI-H1734; first compound 0.06325 µM): 0.117
- relative viability (NCI-H1734; first compound 0.2 µM): 0.106
- relative viability (NCI-H1944; first compound 0.002 µM): 0.195
- relative viability (NCI-H1944; first compound 0.006325 µM): 0.232
- relative viability (NCI-H1944; first compound 0.02 µM): 0.169
- relative viability (NCI-H1944; first compound 0.06325 µM): 0.107
- relative viability (NCI-H1944; first compound 0.2 µM): 0.132
- relative viability (NCI-H1975; first compound 0.002 µM): 0.382
- relative viability (NCI-H1975; first compound 0.006325 µM): 0.347
- relative viability (NCI-H1975; first compound 0.02 µM): 0.14
- relative viability (NCI-H1975; first compound 0.06325 µM): 0.093
- relative viability (NCI-H1975; first compound 0.2 µM): 0.0892
- relative viability (NCI-H2085; first compound 0.002 µM): 0.219
- relative viability (NCI-H2085; first compound 0.006325 µM): 0.254
- relative viability (NCI-H2085; first compound 0.02 µM): 0.207
- relative viability (NCI-H2085; first compound 0.06325 µM): 0.277
- relative viability (NCI-H2085; first compound 0.2 µM): 0.266
- relative viability (NCI-H2126; first compound 0.002 µM): 0.631
- relative viability (NCI-H2126; first compound 0.006325 µM): 0.606
- relative viability (NCI-H2126; first compound 0.02 µM): 0.399
- relative viability (NCI-H2126; first compound 0.06325 µM): 0.206
- relative viability (NCI-H2126; first compound 0.2 µM): 0.221
- relative viability (NCI-H460; first compound 0.002 µM): 0.462
- relative viability (NCI-H460; first compound 0.006325 µM): 0.481
- relative viability (NCI-H460; first compound 0.02 µM): 0.251
- relative viability (NCI-H460; first compound 0.06325 µM): 0.0185
- relative viability (NCI-H460; first compound 0.2 µM): 0.0168
- relative viability (NCI-H520; first compound 0.002 µM): 0.17
- relative viability (NCI-H520; first compound 0.006325 µM): 0.209
- relative viability (NCI-H520; first compound 0.02 µM): 0.198
- relative viability (NCI-H520; first compound 0.06325 µM): 0.151
- relative viability (NCI-H520; first compound 0.2 µM): 0.173
- relative viability (NCI-H596; first compound 0.002 µM): 0.529
- relative viability (NCI-H596; first compound 0.006325 µM): 0.614
- relative viability (NCI-H596; first compound 0.02 µM): 0.426
- relative viability (NCI-H596; first compound 0.06325 µM): 0.479
- relative viability (NCI-H596; first compound 0.2 µM): 0.511
- relative viability (NCI-H647; first compound 0.002 µM): 0.199
- relative viability (NCI-H647; first compound 0.006325 µM): 0.13
- relative viability (NCI-H647; first compound 0.02 µM): 0.13
- relative viability (NCI-H647; first compound 0.06325 µM): 0.0549
- relative viability (NCI-H647; first compound 0.2 µM): 0.0598
- relative viability (NCI-H661; first compound 0.002 µM): 0.891
- relative viability (NCI-H661; first compound 0.006325 µM): 0.954
- relative viability (NCI-H661; first compound 0.02 µM): 0.662
- relative viability (NCI-H661; first compound 0.06325 µM): 0.286
- relative viability (NCI-H661; first compound 0.2 µM): 0.233
- relative viability (NCI-H727; first compound 0.002 µM): 0.358
- relative viability (NCI-H727; first compound 0.006325 µM): 0.331
- relative viability (NCI-H727; first compound 0.02 µM): 0.257
- relative viability (NCI-H727; first compound 0.06325 µM): 0.278
- relative viability (NCI-H727; first compound 0.2 µM): 0.304
- relative viability (NCI-H838; first compound 0.002 µM): 0.301
- relative viability (NCI-H838; first compound 0.006325 µM): 0.281
- relative viability (NCI-H838; first compound 0.02 µM): 0.233
- relative viability (NCI-H838; first compound 0.06325 µM): 0.189
- relative viability (NCI-H838; first compound 0.2 µM): 0.203
- relative viability (RERF-LC-KJ; first compound 0.002 µM): 0.833
- relative viability (RERF-LC-KJ; first compound 0.006325 µM): 0.897
- relative viability (RERF-LC-KJ; first compound 0.02 µM): 0.603
- relative viability (RERF-LC-KJ; first compound 0.06325 µM): 0.232
- relative viability (RERF-LC-KJ; first compound 0.2 µM): 0.234
- relative viability (SW 900; first compound 0.002 µM): 0.741
- relative viability (SW 900; first compound 0.006325 µM): 0.722
- relative viability (SW 900; first compound 0.02 µM): 0.227
- relative viability (SW 900; first compound 0.06325 µM): 0.0874
- relative viability (SW 900; first compound 0.2 µM): 0.109
